Results published in ChEMBL document CHEMBL1201862, “PubChem BioAssay data set” (2004).
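Briefly, cells in 96-well plates were exposed to five compound concentrations for 48 h, and endpoints were estimated by linear interpolation. Abbreviation: GI50, concentration required for 50% inhibition of growth.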 Activity calls are given as the source filed them. Cut-off read from the data, not from the text of the source: active = GI50 up to about 1.1 µM and inactive = higher. Starred links: 1 amine or outer side, 2 acyl side, 3 side chain; linkers in the order of their positions; H or OH if unused. Positions of bridges follow the written chain, without caps; N, C: chain ends. Non-standard residues stand in square brackets, D forms with d. Residues, ends and D or L forms follow the SMILES beside them. Chains are numbered I, II in the order given. Actinocin(9to1) = Cc1c2oc3c(C)ccc(C(=O)[*:1])c3nc-2c(C(=O)[*:2])c(N)c1=O; NMeV = CN[CH](C(=O)O)C(C)C; Sar = CNCC(=O)O

Tests used:
Test in all cases: NCI-60 cell line screen, 48 h
[1] = system: OVCAR-8
[2] = system: MDA-MB-435
[3] = system: OVCAR-3
[4] = system: LOX IMVI
[5] = system: SK-MEL-2
[6] = system: NCI-H522
[7] = system: Malme-3M
[8] = system: UACC-62
[9] = system: HOP-62
[10] = system: SNB-75
[11] = system: KM12
[12] = system: MOLT-4
[13] = system: SK-MEL-5
[14] = system: OVCAR-4
[15] = system: HT-29
[16] = system: NCI-H23
[17] = system: A498
[18] = system: HOP-92

Structure (SMILES) | GI50 [1] | GI50 [2] | GI50 [3] | GI50 [4] | GI50 [5] | GI50 [6] | GI50 [7] | GI50 [8] | GI50 [9] | GI50 [10] | GI50 [11] | GI50 [12] | GI50 [13] | GI50 [14] | GI50 [15] | GI50 [16] | GI50 [17] | GI50 [18]
CC(=O)O[C@H]1CC[C@H]2[C@@H]3CCC4=C/C(=N/OCCN(C)C)CC[C@]4(C)[C@H]3CC[C@]12C | 13.4 µM (inactive) | 2.19 µM (inactive) | 12.8 µM (inactive) | 3.16 µM (inactive) | 11 µM (inactive) | 6.87 µM (inactive) | 13.3 µM (inactive) | 10.7 µM (inactive) | 13.4 µM (inactive) | 6.68 µM (inactive) | 5.61 µM (inactive) | 5.42 µM (inactive) | 4.58 µM (inactive) | 10.9 µM (inactive) | 2.06 µM (inactive) | 12.9 µM (inactive) | – | –
Cn1c(CO)ccc1-c1ccc(-c2ccc(CO)[se]2)[se]1 | 6.89 µM (inactive) | 3.08 µM (inactive) | 2.01 µM (inactive) | 16.2 µM (inactive) | 7.59 µM (inactive) | 18.8 µM (inactive) | 4.15 µM (inactive) | 6.95 µM (inactive) | 7.28 µM (inactive) | > 100 µM (inactive) | 21.4 µM (inactive) | 3.76 µM (inactive) | 2.28 µM (inactive) | 0.578 µM (active) | 37.7 µM (inactive) | 16.3 µM (inactive) | 0.023 µM (active) | –
CC(C)CC(C(N)=O)C(=O)NC(Cc1ccccc1)NC(=O)CNC(=O)C(C)NC(=O)C(N)Cc1ccc(O)cc1 (configuration not stated) | > 100 µM (inactive) | > 100 µM (inactive) | > 100 µM (inactive) | > 100 µM (inactive) | > 100 µM (inactive) | > 100 µM (inactive) | > 100 µM (inactive) | > 100 µM (inactive) | > 100 µM (inactive) | > 100 µM (inactive) | > 100 µM (inactive) | > 100 µM (inactive) | > 100 µM (inactive) | > 100 µM (inactive) | > 100 µM (inactive) | > 100 µM (inactive) | – | –
CCOC(=O)C1C(=O)C=C(c2cc(C)ccc2O)CC1c1cccc(Cl)c1 (configuration not stated) | 29.3 µM (inactive) | 2.78 µM (inactive) | 32 µM (inactive) | 24.2 µM (inactive) | 16.7 µM (inactive) | 12.4 µM (inactive) | 17.3 µM (inactive) | 13.9 µM (inactive) | 40.2 µM (inactive) | – | 16.3 µM (inactive) | 22.6 µM (inactive) | 19.2 µM (inactive) | 17.5 µM (inactive) | 32 µM (inactive) | 26.4 µM (inactive) | – | 13.5 µM (inactive)
CCCCC[C@H]1CCCCCCCCCC(=O)OC2C(O[C@@H]3OC(C)[C@H](OC(=O)[C@@H](C)CC)C(O[C@@H]4OC(C)[C@H](O)C(O)[C@@H]4O)[C@@H]3OC(=O)[C@H](C)CC)[C@H](OC3C(O)[C@@H](O)C(C)O[C@H]3O1)OC(CO)[C@H]2O (some centres not stated) | 19.3 µM (inactive) | – | 17.9 µM (inactive) | 17 µM (inactive) | 16.4 µM (inactive) | 17.7 µM (inactive) | 15.3 µM (inactive) | 16.9 µM (inactive) | 18.2 µM (inactive) | – | 20 µM (inactive) | 15.6 µM (inactive) | 17.1 µM (inactive) | 19.2 µM (inactive) | 16.7 µM (inactive) | 17.9 µM (inactive) | – | 22.3 µM (inactive)
N#C/C(=C\c1cc(F)cc(F)c1)c1ccccn1 | 16 µM (inactive) | – | 36.1 µM (inactive) | – | 22.9 µM (inactive) | 24.2 µM (inactive) | 25.9 µM (inactive) | 45.1 µM (inactive) | > 10 µM (inactive) | 16.1 µM (inactive) | 22.1 µM (inactive) | 13.7 µM (inactive) | 13.3 µM (inactive) | 45.8 µM (inactive) | 34.4 µM (inactive) | 26.1 µM (inactive) | – | 20.5 µM (inactive)
NS(=O)(=O)c1ccc(-n2c(-c3cccs3)nc3ccc(I)cc3c2=O)cc1 | 31.4 µM (inactive) | 18.9 µM (inactive) | 16 µM (inactive) | 18.4 µM (inactive) | – | 19.7 µM (inactive) | 18.3 µM (inactive) | 17.9 µM (inactive) | 30.4 µM (inactive) | 37.7 µM (inactive) | 24.1 µM (inactive) | 52.8 µM (inactive) | 23.7 µM (inactive) | 24.7 µM (inactive) | 31.7 µM (inactive) | 25.8 µM (inactive) | – | 18.5 µM (inactive)
Cc1c2oc3c(C)ccc(C(=O)NC4C(=O)NC(Cc5ccc(O)cc5)C(=O)N5CCCC5C(=O)N(C)CC(=O)N(C)C(C(C)C)C(=O)OC4C)c3nc-2c(C(=O)NC2C(=O)NC(Cc3ccc(O)cc3)C(=O)N3CCCC3C(=O)N(C)CC(=O)N(C)C(C(C)C)C(=O)OC2C)c(N)c1=O (configuration not stated) (I: TYP[Sar][NMeV] / II: TYP[Sar][NMeV]; ester I:1-I:C, II:1-II:C; linker I:N-II:N via Actinocin(9to1); configuration not given here) | 0.8 µM (active) | 1.93 µM (inactive) | 1.63 µM (inactive) | 0.0859 µM (active) | – | 0.877 µM (active) | 0.392 µM (active) | 1.14 µM (inactive) | 2.33 µM (inactive) | 0.139 µM (active) | 0.577 µM (active) | 0.178 µM (active) | 0.163 µM (active) | 1.14 µM (inactive) | 0.755 µM (active) | 0.494 µM (active) | 16 µM (inactive) | –
